# Results reported in PubChem BioAssay (NCI).
#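 Five concentrations, 48 hours, 96-well plates. GI50 marks 50% less growth. Definition used: TGI = concentration required for complete inhibition of growth.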
# What was measured:
# Assay in all cases: growth of human tumour cells (NCI), 48 h
# SR leukemia = test system: SR leukemia
# MDA-MB-435 = test system: MDA-MB-435
# A549 NSCLC = test system: A549 NSCLC
# SK-MEL-28 melanoma = test system: SK-MEL-28 melanoma
# SK-OV-3 ovarian = test system: SK-OV-3 ovarian
# SNB-75 CNS = test system: SNB-75 CNS
# CAKI-1 renal = test system: CAKI-1 renal
# CCRF-CEM leukemia = test system: CCRF-CEM leukemia
# OVCAR-8 ovarian = test system: OVCAR-8 ovarian
# SF-295 CNS = test system: SF-295 CNS
# MOLT-4 leukemia = test system: MOLT-4 leukemia
# PC-3 prostate = test system: PC-3 prostate
# BT-549 breast = test system: BT-549 breast
# TK-10 renal = test system: TK-10 renal
# OVCAR-3 ovarian = test system: OVCAR-3 ovarian
# OVCAR-5 ovarian = test system: OVCAR-5 ovarian
# UACC-257 melanoma = test system: UACC-257 melanoma
# A498 renal = test system: A498 renal
# DU-145 prostate = test system: DU-145 prostate
# RXF 393 renal = test system: RXF 393 renal
# OVCAR-4 ovarian = test system: OVCAR-4 ovarian
# HS 578T breast = test system: HS 578T breast
# HOP-92 NSCLC = test system: HOP-92 NSCLC
# K-562 leukemia = test system: K-562 leukemia
# HL-60(TB) leukemia = test system: HL-60(TB) leukemia
# COLO 205 colon = test system: COLO 205 colon
# SK-MEL-2 melanoma = test system: SK-MEL-2 melanoma
# UO-31 renal = test system: UO-31 renal
# NCI-H522 lung = test system: NCI-H522 lung
# ACHN renal = test system: ACHN renal
# UACC-62 melanoma = test system: UACC-62 melanoma
# SF-268 CNS = test system: SF-268 CNS
smiles,measurement,setting,value
CC(C)=CCC[C@](C)(O)[C@H]1CC[C@]2(C)[C@@H]1CC[C@@H]1[C@@]3(C)CC[C@H](N)C(C)(C)[C@@H]3CC[C@]12C,GI50,SR leukemia,1.17 µM
same,TGI,SR leukemia,3.58 µM
same,GI50,MDA-MB-435,1.87 µM
same,TGI,MDA-MB-435,3.52 µM
same,GI50,A549 NSCLC,1.87 µM
same,TGI,A549 NSCLC,3.77 µM
same,GI50,SK-MEL-28 melanoma,1.8 µM
same,TGI,SK-MEL-28 melanoma,3.35 µM
same,GI50,SK-OV-3 ovarian,3.23 µM
same,TGI,SK-OV-3 ovarian,10.9 µM
same,GI50,SNB-75 CNS,10.5 µM
same,TGI,SNB-75 CNS,26.4 µM
same,GI50,CAKI-1 renal,1.85 µM
same,TGI,CAKI-1 renal,3.38 µM
same,GI50,CCRF-CEM leukemia,3.02 µM
same,TGI,CCRF-CEM leukemia,> 100 µM
same,GI50,OVCAR-8 ovarian,2.18 µM
same,TGI,OVCAR-8 ovarian,4.96 µM
same,GI50,SF-295 CNS,1.81 µM
same,TGI,SF-295 CNS,3.39 µM
same,GI50,MOLT-4 leukemia,2.1 µM
same,TGI,MOLT-4 leukemia,4.98 µM
same,GI50,PC-3 prostate,1.98 µM
same,TGI,PC-3 prostate,4.23 µM
same,GI50,BT-549 breast,14.3 µM
same,TGI,BT-549 breast,55.8 µM
same,GI50,TK-10 renal,6.01 µM
same,TGI,TK-10 renal,21.1 µM
same,GI50,OVCAR-3 ovarian,1.77 µM
same,TGI,OVCAR-3 ovarian,3.27 µM
same,GI50,OVCAR-5 ovarian,1.64 µM
same,TGI,OVCAR-5 ovarian,3.09 µM
same,GI50,UACC-257 melanoma,2.06 µM
same,TGI,UACC-257 melanoma,4.47 µM
same,GI50,A498 renal,1.88 µM
same,TGI,A498 renal,3.55 µM
same,GI50,DU-145 prostate,1.92 µM
same,TGI,DU-145 prostate,3.63 µM
same,GI50,RXF 393 renal,1.49 µM
same,TGI,RXF 393 renal,2.85 µM
same,GI50,OVCAR-4 ovarian,2.19 µM
same,TGI,OVCAR-4 ovarian,5.74 µM
same,GI50,HS 578T breast,2.21 µM
same,TGI,HS 578T breast,5.01 µM
same,GI50,HOP-92 NSCLC,1.76 µM
same,TGI,HOP-92 NSCLC,5.46 µM
same,GI50,K-562 leukemia,1.97 µM
same,TGI,K-562 leukemia,5.71 µM
same,GI50,HL-60(TB) leukemia,1.87 µM
same,TGI,HL-60(TB) leukemia,3.9 µM
same,GI50,COLO 205 colon,1.9 µM
same,TGI,COLO 205 colon,3.68 µM
same,GI50,SK-MEL-2 melanoma,2.02 µM
same,TGI,SK-MEL-2 melanoma,4.05 µM
same,GI50,UO-31 renal,1.54 µM
same,TGI,UO-31 renal,2.9 µM
same,GI50,NCI-H522 lung,1.97 µM
same,TGI,NCI-H522 lung,4.28 µM
same,GI50,ACHN renal,1.78 µM
same,TGI,ACHN renal,3.16 µM
same,GI50,UACC-62 melanoma,1.66 µM
same,TGI,UACC-62 melanoma,3.21 µM
same,GI50,SF-268 CNS,4.19 µM
same,TGI,SF-268 CNS,21.8 µM
